{
  "source": "patent US20200206313A1",
  "about": "“POLYPEPTIDE NANOTUBES LINKED BY DISULFIDE BONDS FOR TARGETED DELIVERY OF CYTOTOXIC THERAPIES” (MUSC FOUNDATION FOR RESEARCH DEVELOPMENT, priority 2018, published 2020)",
  "key": {"HeLa": {"test_system": "HeLa", "test": "Cytotoxicity, MTT assay, HeLa", "type": "cell-based", "procedure": "(§1) HeLa (Cervical cancer cell line), MDA-MB-231 (Breast cancer cell line) and HaCaT (Human keratinocytes) cells were maintained in growth medium consisting of Dulbecco's Modified Eagle's Medium (DMEM, Gibco, India) with high glucose, supplemented with 10% FBS and 1% penicillin-streptomycin. The cells were grown in […] flasks (BD Falcon) and passaged every three days. All culture reagents were purchased from Thermofisher scientific. The serum free media was used to eliminate any confounding effects from serum adsorption to the nanotubes. Within the time-period (5 h) of the experiment, no adverse cellular responses were observed from serum deprivation or serum shock after a transfer from serum containing growth media.\n(§2) Cytotoxicity of nanotube, DOX loaded nanotube and free DOX were assessed in HeLa and MDAMB231 using the MTT assay. About 5×10^3 cells were seeded per well of a 96-well plate and allowed to attach during incubation for 24 h in a humidified incubator at 37° C. Cells were treated with different concentrations of nanotubes, free DOX or DOX loaded nanotubes ranging from 0.2 to 6.4 μg/ml. Four hours before termination of the assay, MTT was added. Mitochondria of viable cells […] MTT to produce purple Formazan crystals. […] The absorbance of each well was measured at 570 nm using a microplate reader (Synergy HT, BioTek Instrument Inc., Winooski Vt.). […]"}, "[1]": {"test": "Stability of mature nanotubes by AFM", "type": "physicochemical", "settings": "~9-months old nanotubes", "procedure": "AFM experiments were performed on a NX-10 AFM (Park systems) system in the non-contact mode. The protein sample was dropped onto freshly cleaved mica and incubated for 20 min. After rinsing with Milli-Q water two times, the sample was dried in a desiccator. […] The tip radius was <10 nm. Images were obtained at a scan rate of 1 Hz."}, "MDAMB231": {"test_system": "MDAMB231", "test": "Cytotoxicity, MTT assay, MDAMB231", "type": "cell-based", "procedure": "as §1, §2"}, "[2]": {"test_system": "integrin-induced phosphorylation of FAK at tyrosine 397", "test": "Integrin signaling: Western blot of FAK phosphorylation at tyrosine 397 in HeLa cells", "type": "cell-based", "settings": "500 ng/ml, 1 h", "procedure": "Cells were maintained as mentioned above in 65 mm dishes. HeLa cells were serum starved for 24 h to remove the effect of serum on cells. Cells were treated with nanotubes or full length IGFBP-2 (1-289) for 1 h in serum-free DMEM. An additional set of cells was treated for 1 h with nanotubes or full length IGFBP-2 without the integrin pathway inhibitor (RGDS) under the same conditions. For control treatments, cells were pretreated with 10 mM RGDS peptide for 1 h. Later, cells were washed once with PBS and lysed in detergent lysis buffer (150 mM NaCl (Sigma Aldrich, USA), 0.1% SDS (Calbiochem, Germany), 0.5% NP40 (Amresco, USA), 1 mM EDTA (pH 8) and protease inhibitor cocktail, PIC (Calbiochem) with gentle vortexing at 4° C. for 20 min and centrifuged at 10,000×g for 10 min. The soluble fraction was separated and, protein estimation was done by Bradford assay. 30 μg of total protein was dissolved in SDS sample buffer (240 mM Tris-HCl (pH 6.8), 8% (w/v) SDS, 0.1% bromophenol blue and 40% (v/v) glycerol), heated at 96° C. for 10 min and centrifuged briefly. Samples were resolved on 12.5% SDS-polyacrylamide gels in Tris-glycine electrophoresis buffer (pH 8.3) containing 25 mM Tris base, 250 mM glycine and 0.1% SDS at 100 Volts for 2 h. […]"}, "Zeta potential": {"test": "Zeta potential", "type": "physicochemical", "procedure": "The Nano tubular size distribution was measured on Zetasizer (Malvern, Southborough, Mass., USA). The changes in the surface charges of free nanotube and nanotube-DOX were probed via the zeta potential using Nano ZS (Malvern, Southborough, Mass., USA)."}, "[3]": {"test": "Stability of nanotubes by fluorescence emission spectra at various pH and temperature", "type": "physicochemical", "procedure": "Fluorescence spectra were acquired on a Perkin Elmer Fluorescence spectrometer. Spectra were recorded for protein samples prepared in 10 mM Tris buffer at pH 7 or 12 (i.e., neutral and basic pH) and 10 mM HEPES buffer at pH 2 (acidic pH) and data were recorded using a 1.0 cm path length quartz cuvette. An excitation wavelength of 280 nm (tyrosine excitation) was used having slit width 2.5 nm and emission spectra were collected from 300 nm to 550 nm with λmax at 340 nm."}, "[4]": {"test_system": "integrin receptors on the cell surface (HeLa cells)", "test": "Confocal imaging of nanotube-FITC interaction with HeLa cells", "type": "cell-based", "settings": "for change of cell-associated signal after integrin inhibitor RGDS: 1 h with 25 μg/ml inhibitor after 4 h incubation", "procedure": "(§3) For microscopic analysis, cells were grown on sterile coverslips with all treatments performed in DMEM without serum for 1 h or 4 h. Treatment was terminated by removing medium and cells washing cells twice with PBS followed by nuclear staining with DAPI (4′,6-diamidino-2-phenylindole) for 10 min at room temperature. Cells were then washed with DPBS and excess buffer was removed. Coverslips were then treated with Antifade (Thermo Fisher Scientific India Private Ltd.) and sealed to a sterile glass slide and analyzed by confocal microscopy (LSM 510 Meta equipped with an Airyscan module, Zeiss, GmbH, Germany)."}, "HeLa cells [5]": {"test_system": "HeLa cells", "test": "Confocal visualization of cellular uptake of DOX in HeLa cells", "type": "cell-based", "settings": "0.4 μg/ml, 1 h and 4 h", "procedure": "as §3"}, "[6]": {"test": "In vitro DOX release by dialysis method", "type": "physicochemical", "settings": "physiological pH 7.4, 37° C., free DOX versus nanotube-DOX", "procedure": "In-vitro drug release experiments were conducted using the dialysis method. The Nanotube-DOX conjugate was dialyzed against medium under different conditions: pH 5, pH 7.4, pH 7.4 with addition of 10 mM GSH, pH 5+10 mM GSH, pH 7.5+10 mM GSH+Enzyme (trypsin) and pH 5+10 mM GSH+trypsin. GSH was used to stimulate redox conditions and trypsin was used to investigate the effect of a non-specific enzyme on nanotube drug carrying ability. As a control free DOX was dialyzed against the same medium at physiological pH (7.4). All dialysis experiments were performed using a dialysis kit having a molecular mass cutoff of 1 kDa. Samples were dialyzed against the DMEM medium without phenol red (Thermofisher scientific) containing 1% P/S (Penicillin-Streptomycin, Cat no, India), 10% FBS (Fetal bovine serum, RM10432, Himedia, India) separately, with gentle and constant stirring at 37° C. At specific time points, aliquots of the medium were collected and absorbance at 495 nm was measured to quantify the release of DOX."}, "HeLa cells [7]": {"test_system": "HeLa cells", "test": "Cellular uptake of DOX by FACS, HeLa", "type": "cell-based", "settings": "percentage population, 0.4 μg/ml, the sentence does not name the cell line (HeLa assumed)", "procedure": "Fluorescence-activated cell sorting (FACS) was used to quantify the cellular uptake of free Doxorubicin and that released from the Nanotube-DOX conjugates exposed to HeLa and HaCaT cells. The cells were treated with free DOX and Nanotube-DOX for 0.5, 1, 2 and 4 h using concentrations corresponding to their IC50 values. The cells were washed with DPBS to remove the unassimilated DOX and then trypsinized. The cell suspension was then centrifuged, and the pellet was re-suspended in 300 μl of DPBS with 0.1% of FBS. The DOX uptake was estimated by quantifying the cell populations using FACS employing Cell Quest software (using a FACSCalibur instrument, BD Biosciences, San Jose Calif.)."}},
  "note": "No end group written: not given here. *: point of attachment. FITC = O=C1OC2(c3ccc(O)cc3Oc3cc(O)ccc32)c2ccc(NC(=S)*)cc21",
  "data": [
    {"molecule": "nanotube: Self-assembled disulfide-linked nanotube of polypeptide hIGFBP-2 249-289 (R281C), SEQ ID NO: 1, with RGD motif (GPLGSPGIRGSCVNPNTGKLIQGAPTIRGDPECHLFYNEQQEACGVHTQRMT; not fully specified (bridges); also: self-assembled nanotube, subunits linked by intermolecular disulfides (Cys12, Cys33, Cys44))", "values": [
      {"measurement": "cytotoxicity of nanotube alone", "setting": "HeLa; after 48 h", "result": "did not cause any appreciable cytotoxicity"},
      {"measurement": "morphological characteristics on storage", "setting": "[1]", "result": "intact"},
      {"measurement": "cytotoxicity of nanotube alone", "setting": "MDAMB231; MDAMB231, after 48 h", "result": "did not cause any appreciable cytotoxicity"},
      {"measurement": "pFAK induction in presence of RGDS inhibitor", "setting": "[2]; RGDS pre-treatment", "result": "compromised"},
      {"measurement": "intensity of pFAK", "setting": "[2]; absence of inhibitor", "result": "higher compared to control cells"},
      {"measurement": "zeta potential", "setting": "Zeta potential", "result": "−21.4", "unit": "mV"},
      {"measurement": "stability at different pH", "setting": "[3]; pH 2, 7 and 12, fluorescence spectra", "result": "stable at all the three pH"},
      {"measurement": "stability at high temperature", "setting": "[3]; pH 7, 90° C., fluorescence spectra", "result": "intact"}
    ]},
    {"molecule": "Fluorescein isothiocyanate [free FITC, reference compound]", "values": [
      {"measurement": "change of cell-associated signal after integrin inhibitor RGDS", "setting": "[4]", "result": "does not show a significant decrease"}
    ]},
    {"molecule": "COc1cccc2c1C(=O)c1c(O)c3c(c(O)c1C2=O)C[C@@](O)(C(=O)CO)C[C@@H]3O[C@H]1C[C@H](N)[C@H](O)[C@H](C)O1.Cl", "note": "[free DOX, Doxorubicin hydrochloride]", "values": [
      {"measurement": "cells killed", "setting": "HeLa; 5 μg/ml, 48 h", "result": "~70", "unit": "%"},
      {"measurement": "intracellular localization of drug", "setting": "HeLa cells [5]", "result": "major accumulation is seen within nuclei"},
      {"measurement": "release of DOX into the medium", "setting": "[6]", "result": "faster than that of DOX loaded on the nanotube"},
      {"measurement": "increase in Dox uptake from 2 h to 4 h", "setting": "HeLa cells [7]", "result": "more than 5 fold"},
      {"measurement": "cells killed", "setting": "MDAMB231; MDAMB231, 5 μg/ml, 48 h", "result": "~70", "unit": "%"}
    ]},
    {"molecule": "nanotube-FITC (GPLGSPGIRGSCVNPNTGK(FITC)LIQGAPTIRGDPECHLFYNEQQEACGVHTQRMT; not fully specified (bridges); also: self-assembled nanotube, subunits linked by intermolecular cysteine disulfides)", "values": [
      {"measurement": "internalization / cellular distribution", "setting": "[4]; 360 ng/ml, 4 h, serum free medium", "result": "no significant internalization"},
      {"measurement": "change of cell-associated signal after integrin inhibitor RGDS", "setting": "[4]", "result": "prominent loss of nanotube-FITC intensity"}
    ]}
  ]
}
